The term melting point denotes the temperature of the solid-liquid transition. In general, pIC50 refers to −log10 of the IC50, conventionally taken in molar units.

pIC50: −log10 of the molar value.

Data set [1] concerns Human peripheral blood mononuclear cells. Nature of the data set: Human Concanavalin-A Proliferation Assay (Con HU Assay). It counts as cell-based. The settings on record: Homo sapiens, PBMC, concanavalin-A stimulated human PBMC; for inhibition at 100 µM / inhibition at 1 µM / inhibition at 10 µM: 72 h, 3 days, read-out: % Inhibition of proliferation (at concentrations of 1,10, or 100 μm); for inhibition at 100 µM: concentration 100 μm (in parentheses in the cell); for pIC50: tritiated thymidine; for inhibition at 1 µM: concentration 1 μm (in parentheses in the cell); for inhibition at 10 µM: concentration 10 μm (in parentheses in the cell). The method, boiled down:
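Histopaque-isolated human PBMC (50,000/well) were pre-incubated 15 min with compounds, then stimulated with concanavalin-A at 2.5 μg/ml final for 3 days at 37 °C, 5% CO2. Proliferation measured by 6 h pulse with 0.5 μCi/well [3H]thymidine and beta counting.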

On to `O=C(Nc1ccc(-n2nc(C(F)(F)F)cc2C(F)(F)F)cc1)c1ccc2c(c1)OCO2` [Example 148, N-[4-[3,5-bis(trifluoromethyl)-1H-pyrazol-1-yl]phenyl]-1,3-benzodioxole-5-carboxamide], for which the melting point is 222 to 224 °C. In data set [1], the inhibition at 100 µM was determined as 94% and the pIC50 is 6.28.
`COc1cccc2cc(C(=O)Nc3ccc(-n4nc(C(F)(F)F)cc4C(F)(F)F)cc3)oc12` [Example 49, N-[4-[3,5-bis(trifluoromethyl)-1H-pyrazol-1-yl]phenyl]-7-methoxy-2-benzofurancarboxamide] showed a melting point of 109 to 110 °C. Moreover, in data set [1], the inhibition at 1 µM was found to be 9%.
As for `O=C(Nc1ccc(-n2nc(C(F)(F)F)cc2Br)cc1)c1ccncc1Cl` [Example 349, N-(4-(5-bromo-3-(trifluoromethyl)-1H-pyrazol-1-yl)phenyl)-3-chloroisonicotinamide], the melting point is 79 to 82 °C. Further, the pIC50 in data set [1] was 6.65.
Consider `COC(=O)c1ccc(C(=O)Nc2ccc(-n3nc(C(F)(F)F)cc3C(F)(F)F)cc2)cc1` [Example 142, methyl 4-[[[4-[3,5-bis(trifluoromethyl)-1H-pyrazol-1-yl]phenyl]amino]carbonyl]benzoate], for which the melting point fell in the range of 195 to 196 °C. For the same compound, in data set [1], the inhibition at 10 µM was 99% and the negative logarithm of the IC50 (pIC50) was 6.31.
In the same order, the values of `NC(=O)c1ccc(C(=O)Nc2ccc(-n3nc(C(F)(F)F)cc3C(F)(F)F)cc2)cc1` [Example 133, N-[4-[3,5-bis(trifluoromethyl)-1H-pyrazol-1-yl]phenyl]-1,4-benzenedicarboxamide] are 290 to 291 °C, 97% and 6.50.
Turning to `N#Cc1cccc(C(=O)Nc2cccc(-n3nc(C(F)(F)F)cc3C(F)(F)F)c2)c1` [Example 204, N-[3-[3,5-bis(trifluoromethyl)-1H-pyrazol-1-yl]phenyl]-3-cyanobenzamide], the melting point lay in the range of 160 to 161 °C. The inhibition at 1 µM in data set [1] came to 12%.
As to `CC(=O)c1ccc(C(=O)Nc2ccc(-n3nc(C(F)(F)F)cc3C(F)(F)F)cc2)cc1` [Example 119, 4-Acetyl-N-[4-[3,5-bis(trifluoromethyl)-1H-pyrazol-1-yl]phenyl]benzamide], the melting point was 203 to 204 °C. Moreover, in data set [1], the inhibition at 10 µM was 100% and the pIC50 is 6.24.
In turn, `O=C(Nc1ccc(-n2nc(C(F)(F)F)cc2C(F)(F)F)cc1)c1ccc(F)cc1Cl` [Example 206, N-[4-[3,5-bis(trifluoromethyl)-1H-pyrazol-1-yl]phenyl]-2-chloro-4-fluorobenzamide] had a melting point of 155 to 157 °C. For the same compound, in data set [1], the inhibition at 10 µM came out at 100% and the pIC50 is 7.21.
In the same order, the values of `O=C(Nc1ccc(-n2nc(C(F)(F)F)cc2C(F)(F)F)cc1)c1ccc(C(F)(F)F)cc1C(F)(F)F` [Example 183, N-[4-[3,5-bis(trifluoromethyl)-1H-pyrazol-1-yl]phenyl]-2,4-bis(trifluoromethyl)benzamide] are 200 to 201 °C, 94% and 6.27.
In the same order, the values of `Cn1ncc(C(=O)Nc2ccc(-n3nc(C(F)(F)F)cc3C(F)(F)F)cc2)c1[N+](=O)[O-]` [Example 83, N-[4-[3,5-bis(trifluoromethyl)-1H-pyrazol-1-yl]phenyl]-1-methyl-5-nitro-1H-pyrazole-4-carboxamide] are 214 to 216 °C, 99% and 7.15.
In turn, `COc1cc(C(F)(F)F)nn1-c1ccc(NC(=O)c2ccccc2F)cc1` [Example 313, 2-fluoro-N-(4-(5-methoxy-3-(trifluoromethyl)-1H-pyrazol-1-yl)phenyl)benzamide] showed a melting point of 167 to 168 °C. The pIC50 in data set [1] was 7.18.
`O=C(Nc1ccc(F)cc1F)c1ccc(-n2nc(C(F)(F)F)cc2C(F)(F)F)cc1` [Example 187, 4-[3,5-Bis(trifluoromethyl)-1H-pyrazol-1-yl]-N-(2,4-difluorophenyl)benzamide] had a melting point of 176 to 177 °C. In data set [1], the inhibition at 1 µM was found to be 86% and the pIC50 is 6.44.
Compound `O=C(Nc1ccc(-n2nc(C(F)(F)F)cc2C(F)(F)F)cc1)c1ccccc1[N+](=O)[O-]` [Example 136, N-[4-[3,5-bis(trifluoromethyl)-1H-pyrazol-1-yl]phenyl]-2-nitrobenzamide] displayed a melting point of 174 to 176 °C. In data set [1], the inhibition at 100 µM was determined as 99% and the negative-log IC50 (pIC50) is 6.65.
For `O=C(Nc1ccc(-n2nc(C(F)(F)F)cc2C(F)(F)F)cc1)C1=CCCC1` [Example 10, N-[4-[3,5-bis(trifluoromethyl)-1H-pyrazol-1-yl]phenyl]-1-cyclopentene-1-carboxamide], the melting point was in the range of 174 to 175 °C. Besides, in data set [1], the inhibition at 10 µM amounted to 100% and the pIC50 is 6.94.
The compound `O=C(Nc1ccc(-n2nc(C(F)(F)F)cc2C(F)(F)F)cc1)c1cccc([N+](=O)[O-])c1` [Example 140, N-[4-[3,5-bis(trifluoromethyl)-1H-pyrazol-1-yl]phenyl]-3-nitrobenzamide] gave a melting point of 203 to 204 °C. For the same compound, in data set [1], the inhibition at 100 µM stood at 100% and the pIC50 was 6.53.
Compound `O=C(Nc1ccc(-n2nc(C(F)(F)F)cc2C(F)(F)F)cc1)c1ccc(F)cc1` [Example 90, N-[4-[3,5-bis(trifluoromethyl)-1H-pyrazol-1-yl]phenyl]-4-fluorobenzamide] registered a melting point of 184 to 186 °C. Moreover, in data set [1], the inhibition at 100 µM was 98% and the pIC50 was 6.84.
As for `COC(C(=O)Nc1ccc(-n2nc(C(F)(F)F)cc2C(F)(F)F)cc1)(c1ccccc1)C(F)(F)F` (stereo not drawn) [Example 55, N-[4-[3,5-bis(trifluoromethyl)-1H-pyrazol-1-yl]phenyl]-α-methoxy-α-(trifluoromethyl)benzeneacetamide], the melting point lay in the range of 127 to 129 °C. Further, the inhibition at 1 µM in data set [1] stood at 13%.
As to `COC1CCCC(C(=O)Nc2ccc(-n3nc(C(F)(F)F)cc3C(F)(F)F)cc2)C1` (stereo not shown) [Example 11, N-[4-[3,5-bis(trifluoromethyl)-1H-pyrazol-1-yl]phenyl]-3-methoxycyclohexanecarboxamide], the melting point was in the range of 145 to 147 °C. Also, in data set [1], the inhibition at 10 µM is 100% and the pIC50 is 6.42.
`CC(=O)c1ccc(NC(=O)Nc2ccc(-n3nc(C(F)(F)F)cc3C(F)(F)F)cc2)cc1` [Example 42, N-(4-acetylphenyl)-N′-[4-[3,5-bis(trifluoromethyl)-1H-pyrazol-1-yl]phenyl]urea] yielded a melting point of 230 to 231 °C. In data set [1], the inhibition at 1 µM stood at 9%.
`O=C(Nc1ccc(-n2nc(C(F)(F)F)cc2C(F)(F)F)cc1)c1ccc(O)c([N+](=O)[O-])c1` [Example 180, N-[4-[3,5-bis(trifluoromethyl)-1H-pyrazol-1-yl]phenyl]-4-hydroxy-3-nitrobenzamide] registered a melting point of 193 to 194 °C. Moreover, in data set [1], the inhibition at 10 µM worked out at 95% and the pIC50 was 5.54.
As to `Cc1cc(C)c(C(=O)Nc2ccc(-n3nc(C(F)(F)F)cc3C(F)(F)F)cc2)c(C)c1` [Example 78, N-[4-[3,5-bis(trifluoromethyl)-1H-pyrazol-1-yl]phenyl]-2,4,6-trimethylbenzamide], the melting point was in the range of 203 to 205 °C. In data set [1], the inhibition at 100 µM stood at 95% and the pIC50 was 6.22.
For the compound `O=C(Nc1ccc(-n2nc(C(F)(F)F)cc2C(F)(F)F)cc1)c1ccc(Br)cc1` [Example 85, N-[4-[3,5-bis(trifluoromethyl)-1H-pyrazol-1-yl]phenyl]-4-bromobenzamide], the melting point lay within 205 to 207 °C. Also, in data set [1], the inhibition at 100 µM came out at 93% and the pIC50 is 6.56.
`O=C(Nc1ccc(-n2nc(C(F)(F)F)cc2C(F)(F)F)nc1)c1cc(F)c(F)cc1Cl` [Example 262, N-[2-[3,5-bis(trifluoromethyl)-1H-pyrazol-1-yl]-5-pyridinyl]-2-chloro-4,5-difluorobenzamide]: the melting point was in the range of 113 to 116 °C. Besides, in data set [1], the inhibition at 10 µM came to 100% and the pIC50 was 6.38.
For the compound `CC1(C(=O)Nc2ccc(-n3nc(C(F)(F)F)cc3C(F)(F)F)cc2)CC1` [Example 35, N-[4-[3,5-bis(trifluoromethyl)-1H-pyrazol-1-yl]phenyl]-1-methylcyclopropanecarboxamide], the melting point is 109 to 110 °C. The inhibition at 1 µM in data set [1] came to 65%.
In the same order, the values of `Cc1nnsc1C(=O)Nc1ccc(-n2nc(C(F)(F)F)cc2O)cc1` [Example 288, N-[4-[5-hydroxy-3-(trifluoromethyl)-1H-pyrazol-1-yl]phenyl]-4-methyl-1,2,3-thiadiazole-5-carboxamide] are 177 to 179 °C and 16%.
For the compound `O=C(O)c1cccc(C(=O)Nc2ccc(-n3nc(C(F)(F)F)cc3C(F)(F)F)cc2)c1` [Example 159, 3-[[[4-[3,5-bis(trifluoromethyl)-1H-pyrazol-1-yl]phenyl]amino]carbonyl]benzoic acid], the melting point lay in the range of 244 to 245 °C. Further, in data set [1], the inhibition at 10 µM came out at 93% and the pIC50 is 5.53.

The values above are taken from patent publication US20010044445A1, “AZOLE INHIBITORS OF CYTOKINE PRODUCTION” (priority 1999, published 2001).
